From publication PMC6338780, “Structural elements of a pH-sensitive inhibitor binding site in NMDA receptors” (Nature Communications, 2019)
“And” between values parts separate entries of the source, which are not always exact repeats. Identical values can stand only once. Marks after values point to notes of the source that are not given here.

Key:
[1] = target: T1, GluN1a–GluN2B ATD heterodimer (UniProt A0A1L8F5J9+Q00960, N348D/N350Q/N61Q); experiment: ITC, ligands titrated into isolated GluN1a–GluN2B ATD heterodimer; type: binding, Xenopus GluN1a, rat GluN2B
T1 construct: the ATD domains of Xenopus GluN1a and rat GluN2B; alkaline phosphatase secretion signal (N); 57 residue linker to the other ATD, with TEV protease sites (cleaved yes); made in house
T1 sequence (Q00960 31-394 N348D limits assumed, other chains not shown): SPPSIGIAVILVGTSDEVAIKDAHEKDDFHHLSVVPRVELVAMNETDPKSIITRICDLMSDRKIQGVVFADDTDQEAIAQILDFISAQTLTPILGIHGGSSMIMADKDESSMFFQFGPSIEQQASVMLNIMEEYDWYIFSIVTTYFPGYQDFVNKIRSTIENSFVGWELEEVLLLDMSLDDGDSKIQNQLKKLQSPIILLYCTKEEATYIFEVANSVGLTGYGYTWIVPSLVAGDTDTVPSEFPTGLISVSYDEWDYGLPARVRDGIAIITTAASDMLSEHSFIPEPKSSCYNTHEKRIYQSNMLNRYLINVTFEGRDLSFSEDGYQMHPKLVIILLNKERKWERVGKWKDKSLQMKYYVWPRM
Description: In order to directly estimate binding affinities of these inhibitors for their binding site in the GluN1–GluN2B NMDA receptors, we performed ITC using the purified GluN1a–GluN2B ATD proteins titrated with ligands of various N-substituent lengths at pH 7.6 and pH 6.5 to mimic the extreme drop in pH that can occur at the ischemic core[1]–[4] (Fig. 2a, b; Supplementary Figures 2 and 3). Toward this end, we expressed the isolated […] GluN1a–GluN2B ATD heterodimer proteins in GnTI^− HEK293S cells. Here, for clarity we will call the GluN1 ATD with and without exon 5 GluN1b ATD and GluN1a ATD, respectively.
To efficiently express the ATD domains of Xenopus GluN1a and rat GluN2B, we used the alkaline phosphatase secretion signal and fused the two domains with a 57 residue linker as described elsewhere, with the following modifications: due to an intrinsic thrombin site in the GluN2B ATD, we engineering Tobacco Etch Virus (TEV) protease sites into this construct to remove the linker. In addition, three glycosylation sites were removed by mutating GluN1a Asn61 and Asn371 to Gln, and GluN2B Asn348 was mutated to Asp.
Cell cultures were maintained at 37 °C with 5% CO2 and grown to a density of 2.0–2.5 × 10^6 cells mL^−1, then infected with baculovirus. Sodium butyrate was added to the infected cells to a final concentration of 5 mM and culture medium containing secreted GluN1a–GluN2B ATD fusion protein was harvested 96 h after infection.
Cells were removed from the medium by centrifugation and the clarified medium was concentrated and exchanged three times to cold TBS (200 mM NaCl, 20 mM Tris, pH 8.0) using tangential flow filtration with a molecular weight cutoff of 30 kDa (Pall Corporation). […] The following day, glutathione in a 10:1 ratio, reduced:oxidized, was added to the dialyzed protein to a final concentration of 3 mM, along with EDTA, pH 8.0, to a final concentration of 1 mM. Based on the protein yield, a 1:100 ratio of TEV protease (mass:mass, TEV:ATD) was added to the ATD solution and the reaction was incubated for 4 h at 18 °C. Next, EndoF1 endoglycosidase at a 1:5 ratio (mass:mass, EndoF1:ATD) was added to the ATD/TEV mixture and dialyzed overnight at room temperature to 2 L TBS with 10% glycerol and 20 mM imidazole.
This sample was then dialyzed overnight at 4 °C to 2 L TBS with 20% glycerol. […]
After dialysis, the protein sample was diluted to 10–15 μM and dimethyl sulfoxide (DMSO) was added to a final concentration of 1.5% (v/v), in order to match that of the ligand solution. […] Dilution enthalpy was calculated from post-saturation injections and subtracted from total heats, and the data were fit using a single-site model with the program OriginLab 7.5.

[2] = target: GluN1b–GluN2B ATD heterodimer (Xenopus laevis; Rattus norvegicus, UniProt A0A1L8F5J9+Q00960, E186G/INS190SKKRNYENLDQLSYDNKRGPK/N348D/N350Q/N61Q); experiment: ITC, ifenprodil titrated into isolated GluN1b–GluN2B ATD used for crystallization; type: binding; conditions: pH 7.6
UniProt Q00960, sequence (Q00960 32-394 N348D, other chains not shown): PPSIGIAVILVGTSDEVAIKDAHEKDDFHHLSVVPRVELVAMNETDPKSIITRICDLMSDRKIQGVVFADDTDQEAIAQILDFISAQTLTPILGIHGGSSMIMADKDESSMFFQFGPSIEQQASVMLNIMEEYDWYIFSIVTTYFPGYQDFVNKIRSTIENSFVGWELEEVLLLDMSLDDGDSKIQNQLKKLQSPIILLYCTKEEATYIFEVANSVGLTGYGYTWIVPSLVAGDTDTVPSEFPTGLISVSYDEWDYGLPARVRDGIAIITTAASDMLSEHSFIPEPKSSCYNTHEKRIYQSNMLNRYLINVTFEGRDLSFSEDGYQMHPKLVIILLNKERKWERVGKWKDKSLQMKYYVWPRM

[3] = target: GluN1b–GluN2B ATD heterodimer (Xenopus laevis; Rattus norvegicus, UniProt A0A1L8F5J9+Q00960, E186G/INS190[…]/N348D/N350Q/N61Q); experiment: as above; type: binding; conditions: pH 7.6
GluN1b–GluN2B ATD heterodimer (Xenopus laevis; Rattus norvegicus, UniProt A0A1L8F5J9+Q00960, E186G/INS190[…]/N348D/N350Q/N61Q), sequence (Q00960 32-394 N348D, other chains not shown): as above

[4] = target: T2, GluN1-4a/GluN2B (WT) NMDA receptor (Rattus norvegicus, UniProt P35439+Q00960); experiment: TEVC concentration–response in Xenopus oocytes, wild type GluN1-4a/GluN2B; type: cell-based; conditions: for Ifenprodil DR, response at 0.01: ifenprodil at 0.01; for Ifenprodil DR, response at 0.01 / Ifenprodil DR, response at 0.03 / Ifenprodil DR, response at 0.1: relative to 100/100 G/G; for Ifenprodil DR, response at 0.03: ifenprodil at 0.03; for Ifenprodil DR, response at 0.1: ifenprodil at 0.1
T2 construct: compared to that observed for full-length receptors in TEVC recordings; expressed in transfected cells; host or cells: Xenopus laevis oocytes, cRNA injection
T2 sequence (Q00960 27-1482, other chains not shown): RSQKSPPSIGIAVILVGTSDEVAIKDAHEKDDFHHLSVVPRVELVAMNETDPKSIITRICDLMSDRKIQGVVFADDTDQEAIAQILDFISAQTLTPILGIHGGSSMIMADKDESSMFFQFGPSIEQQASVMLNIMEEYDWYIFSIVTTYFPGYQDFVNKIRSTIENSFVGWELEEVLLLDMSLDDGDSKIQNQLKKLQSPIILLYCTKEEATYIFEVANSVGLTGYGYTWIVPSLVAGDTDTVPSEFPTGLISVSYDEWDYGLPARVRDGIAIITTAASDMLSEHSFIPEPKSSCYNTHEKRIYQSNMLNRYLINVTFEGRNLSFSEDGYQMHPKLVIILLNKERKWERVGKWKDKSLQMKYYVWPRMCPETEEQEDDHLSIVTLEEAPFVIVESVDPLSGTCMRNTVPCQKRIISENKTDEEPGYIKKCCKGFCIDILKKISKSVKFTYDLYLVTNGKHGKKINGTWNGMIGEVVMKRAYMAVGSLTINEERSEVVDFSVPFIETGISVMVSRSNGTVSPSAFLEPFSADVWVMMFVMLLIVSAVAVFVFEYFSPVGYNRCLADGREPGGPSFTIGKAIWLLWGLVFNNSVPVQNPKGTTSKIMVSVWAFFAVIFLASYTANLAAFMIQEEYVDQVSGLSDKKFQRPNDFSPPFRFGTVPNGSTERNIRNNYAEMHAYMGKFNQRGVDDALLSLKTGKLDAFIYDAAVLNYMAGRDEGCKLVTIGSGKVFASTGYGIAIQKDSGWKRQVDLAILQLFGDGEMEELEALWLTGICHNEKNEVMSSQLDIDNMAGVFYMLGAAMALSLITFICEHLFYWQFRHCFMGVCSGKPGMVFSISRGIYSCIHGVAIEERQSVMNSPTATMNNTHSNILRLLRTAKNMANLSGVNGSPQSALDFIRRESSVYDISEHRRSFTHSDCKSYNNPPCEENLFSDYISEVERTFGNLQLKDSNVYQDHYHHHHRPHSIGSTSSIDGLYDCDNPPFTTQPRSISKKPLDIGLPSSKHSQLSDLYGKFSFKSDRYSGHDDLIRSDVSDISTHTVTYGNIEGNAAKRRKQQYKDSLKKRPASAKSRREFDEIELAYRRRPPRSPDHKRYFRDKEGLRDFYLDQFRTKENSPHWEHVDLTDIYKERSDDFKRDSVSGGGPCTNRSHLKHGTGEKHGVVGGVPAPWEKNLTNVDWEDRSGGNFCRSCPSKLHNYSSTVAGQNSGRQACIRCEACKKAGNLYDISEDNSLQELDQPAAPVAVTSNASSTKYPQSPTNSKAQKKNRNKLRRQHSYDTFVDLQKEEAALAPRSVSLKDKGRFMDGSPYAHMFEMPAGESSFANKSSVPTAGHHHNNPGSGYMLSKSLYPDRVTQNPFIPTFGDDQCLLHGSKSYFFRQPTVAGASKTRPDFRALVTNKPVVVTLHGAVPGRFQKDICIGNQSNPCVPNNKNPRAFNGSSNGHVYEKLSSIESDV
Method: Missense mutations were introduced into rat cDNAs encoding GluN1-4a and GluN2B in the pGEM-HE vector using the QuikChange protocol (Stratagene) using the primers listed in Supplementary Table 2. These plasmids were then linearized with NotI and used as templates for cRNA synthesis (Ambion). A total mass of 5–10 ng cRNA at a 1:2 weight ratio of GluN1-4a and GluN2B transcripts was co-injected into defolliculated Xenopus laevis oocytes (EcoCyte Bioscience). The oocytes were incubated in Barth’s solution containing 88 mM NaCl, 2.4 mM NaHCO3, 1 mM KCl, 0.33 mM Ca(NO3)2, 0.41 mM CaCl2, 0.82 mM MgSO4, and 5 mM HEPES, at a final pH of 7.4, supplemented with 0.1 mg mL^−1 gentamicin sulfate, 1 μg mL^−1 streptomycin, and 1 U mL^−1 penicillin at 15–19 °C. TEVC current recordings were performed 2–4 days after injection using an extracellular recording solution containing 90 mM NaCl, 10 mM HEPES, 1 mM KCl, 0.5 mM BaCl2, and 0.01 mM EDTA at either pH 6.9 or pH 7.6[39]. Voltage clamp was achieved and current responses were recorded at a holding potential of –40 mV with a two-electrode voltage clamp amplifier (Warner) at room temperature (~23 °C). Currents were low-pass filtered at 10 Hz and digitized at 20 Hz by LabWindows/CVI (National Instruments). […]

[5] = target: T3, GluN1-4a(Y109W)/GluN2B NMDA receptor (Rattus norvegicus, UniProt P35439+Q00960, Y109W); experiment: TEVC concentration–response, GluN1-4a(Y109W) mutant; type: cell-based; conditions: pH 7.6; BAPTA (Table 3)
T3 construct: compared to that observed for full-length receptors in TEVC recordings; expressed in transfected cells; host or cells: Xenopus laevis oocytes, cRNA injection
T3 sequence (Q00960 27-1482, other chains not shown): as above
Method: Missense mutations were introduced into rat cDNAs encoding GluN1-4a and GluN2B in the pGEM-HE vector using the QuikChange protocol (Stratagene) using the primers listed in Supplementary Table 2. These plasmids were then linearized with NotI and used as templates for cRNA synthesis (Ambion). A total mass of 5–10 ng cRNA at a 1:2 weight ratio of GluN1-4a and GluN2B transcripts was co-injected into defolliculated Xenopus laevis oocytes (EcoCyte Bioscience). The oocytes were incubated in Barth’s solution containing 88 mM NaCl, 2.4 mM NaHCO3, 1 mM KCl, 0.33 mM Ca(NO3)2, 0.41 mM CaCl2, 0.82 mM MgSO4, and 5 mM HEPES, at a final pH of 7.4, supplemented with 0.1 mg mL^−1 gentamicin sulfate, 1 μg mL^−1 streptomycin, and 1 U mL^−1 penicillin at 15–19 °C. TEVC current recordings were performed 2–4 days after injection using an extracellular recording solution containing 90 mM NaCl, 10 mM HEPES, 1 mM KCl, 0.5 mM BaCl2, and 0.01 mM EDTA at either pH 6.9 or pH 7.6[39]. Voltage clamp was achieved and current responses were recorded at a holding potential of –40 mV with a two-electrode voltage clamp amplifier (Warner) at room temperature (~23 °C). Currents were low-pass filtered at 10 Hz and digitized at 20 Hz by LabWindows/CVI (National Instruments). Maximal effective concentrations of glutamate and glycine (100 and 30 μM, respectively) were used in all recordings.

[6] = target: T4, GluN1-4a(H134A)/GluN2B NMDA receptor (Rattus norvegicus, UniProt P35439+Q00960, H134A); experiment: TEVC concentration–response, GluN1-4a(H134A) mutant; type: cell-based; conditions: pH 7.6; BAPTA (Table 3)
T4 construct: compared to that observed for full-length receptors in TEVC recordings; expressed in transfected cells; host or cells: Xenopus laevis oocytes, cRNA injection
Method: Missense mutations were introduced into rat cDNAs encoding GluN1-4a and GluN2B in the pGEM-HE vector using the QuikChange protocol (Stratagene) using the primers listed in Supplementary Table 2. These plasmids were then linearized with NotI and used as templates for cRNA synthesis (Ambion). A total mass of 5–10 ng cRNA at a 1:2 weight ratio of GluN1-4a and GluN2B transcripts was co-injected into defolliculated Xenopus laevis oocytes (EcoCyte Bioscience). […] Voltage clamp was achieved and current responses were recorded at a holding potential of –40 mV with a two-electrode voltage clamp amplifier (Warner) at room temperature (~23 °C). Currents were low-pass filtered at 10 Hz and digitized at 20 Hz by LabWindows/CVI (National Instruments). Maximal effective concentrations of glutamate and glycine (100 and 30 μM, respectively) were used in all recordings.

For `CC(C(O)c1ccc(O)cc1)N1CCC(Cc2ccccc2)CC1` (centres unmarked) [Ifenprodil, Ifenprodil hemitartrate], the Kd ([1]; pH 6.5) was 249 ± 16 nM, the Kd ([1]; pH 7.6) was 226 ± 15 nM and the “n (ITC stoichiometry)” value ([1]; pH 6.5) was 0.97 ± 0.01. For the same compound, the “n (ITC stoichiometry)” value ([1]; pH 7.6) was 1.0 ± 0.01, the Kd [2] was 255 ± 11 nM and the “n (ITC stoichiometry)” value [3] was 0.98 ± 0.01. The nH ([4]; 1-4a/2B WT, pH7.6, BAPTA, ifenprodil) was 0.8364 and 0.9502 and 1.0632 and 0.8875 and 0.8992 and 1.197 and 1.038, the “Ifenprodil DR, response at 0.01” value ([4]; 1-4a/2B WT, pH7.6, BAPTA) was 89.9 and 98.2 and 90 and 89 and 92.8 and 95.6 and 95.4 and the “Ifenprodil DR, response at 0.01” value ([4]; 1-4a/2B WT, pH7.6, BAPTA, mean) was 92.9857. For the same compound, the “Ifenprodil DR, response at 0.03” value ([4]; 1-4a/2B WT, pH7.6, BAPTA) was 78.8 and 96.7 and 76.5 and 75.3 and 82 and 88.4 and 87, the “Ifenprodil DR, response at 0.03” value ([4]; 1-4a/2B WT, pH7.6, BAPTA, mean) was 83.5286 and the “Ifenprodil DR, response at 0.1” value ([4]; 1-4a/2B WT, pH7.6, BAPTA) was 64.2 and 90.5 and 49.1 and 54.7 and 63.1 and 64.1 and 66.9. For the same compound, the “Ifenprodil DR, response at 0.1” value ([4]; 1-4a/2B WT, pH7.6, BAPTA, mean) was 64.6571, the nH ([4]; 1-4a/2B WT, pH7.6, BAPTA, ifenprodil, mean) was 0.9818 and the nH ([4]; Ifenprodil DR, 1-4a/2B WT, pH7.6, BAPTA, single oocyte recordings, row 'mean' = mean) was 0.8875 and 0.8992 and 1.197 and 1.038 and 0.8364 and 0.9502 and 1.0632. For the same compound, the nH ([4]; Ifenprodil DR, 1-4a/2B WT, pH7.6, BAPTA, single oocyte recordings, row 'mean' = mean, mean) was 0.9818, the “% response” value ([4]; current at 1 μM ifenprodil, pH 7.6, BAPTA) was 35% and the nH ([4]; pH 7.6, BAPTA (Table 3)) was 1.0. The “% response, current at maximal ifenprodil potentiation” value [5] was “ND, 115%^f nH ND (9)” and the “% response, current at maximal ifenprodil potentiation” value [6] was “ND, 105%^f nH ND (9)”.
